Source: patent US20200383985A1, “Inhibitors of Protease Activated Receptor-2” (Endosome Therapeutics, Inc., priority 2017, published 2020)
pEC50: −log10 of the molar value. Like-named read-outs stand apart in the source and are kept apart here. Each block holds one compound with its values, some of them ahead of it.

Legend:
colonic afferent neurons = experiment: Colonic afferent recordings, healthy mice; design: species or system mouse; details: for basal mechanical sensitivity of colonic afferents / trypsin-induced sensitization of mechanical responses: I-343 10 μM, PS2 or PS2 inact 50 μM; for amplification of frequency of firing to mechanical stimulation: healthy mice, 2 g filament, trypsin 10 nM, NE 100 nM, CS 100 nM, 10 min
Excerpt: To examine whether proteases cleave PAR2 on the peripheral terminals of colonic nociceptors to induce mechanical hypersensitivity, single unit recordings from afferent neurons innervating the mouse colon were made. Receptive fields were identified by mechanical stimulation of the mucosal surface with von Frey filaments, proteases were applied to the mucosal receptive fields, and mechanical responses were re-evaluated to assess sensitization. Under basal conditions, repeated mechanical stimulation (2 g filament) induced reproducible firing (FIG. 9A). […] The results support the hypothesis that PAR2 endocytosis is required trypsin-induced sensitization of colonic afferent neurons. The colon and rectum (5-6 cm) was removed from C57BL/6 mice. Afferent recordings were made from splanchnic nerves as described (Hughes, P. A. et al., Gut 2009, 58(10): 1333-134; Brierley, S. M. et al., Gastroenterology 2004, 127(1): 166-178). Briefly, the intestine was opened and pinned flat, mucosal side up, in an organ bath. […] The splanchnic nerve was extended into a paraffin-filled recording compartment, in which finely dissected strands were laid onto a platinum electrode for single-unit extracellular recordings of action potentials generated by mechanical stimulation of receptive fields in the colon. Receptive fields were identified by mechanical stimulation of the mucosal surface with a brush of sufficient stiffness to activate all types of mechanosensitive afferents. […] These neurons express an array of channels and receptors involved in pain, become mechanically hypersensitive in models of chronic visceral pain, and have a nociceptor phenotype. They are therefore referred to as “colonic nociceptors”. […] Proteases were applied to a metal cylinder placed over the receptive mucosal field of interest. […] Action potentials were analyzed using the Spike 2 […] function and discriminated as single units on the basis of distinguishable waveform, amplitude and duration.

PKC and cAMP = experiment: FRET assays of PKC and cAMP in HEK293 cells; format: cell-based
Description: I-343, but not SCH530348, inhibited trypsin stimulation of PKC and cAMP, which thus depend on PAR2 (FIGS. 19G and H). […] The sustained plasma membrane cAMP response to trypsin support the existence of mechanisms that allow persistent PAR2 signaling, which warrant further investigation.
(§1) HEK293 cells were cultured in DMEM supplemented with 10% (v/v) FBS (5% CO2, 37° C.). When necessary serum restriction was achieved by replacing culture medium with DMEM containing 0.5% FBS overnight. Cells were transiently transfected using polyethylenimine (PEI) (1:6 DNA:PEI).
HEK293 cells were transiently transfected in 10 cm dishes (˜50% confluency) with Flag-PAR2-HA (2.5 μg) and FRET biosensors CytoEKAR or NucEKAR (2.5 μg) (Jensen, D. D. et al., Sci Transl Med. 2017, 9(392), eaal3447; Thomsen, A. R. B., et al., Cell 2016, 166(4): 907-919). In experiments examining the role of dynamin, cells were transfected with FLAG-PAR2-HA (1.25 μg), FRET biosensor (1.25 μg) and either DynWT-HA, DynK44E-HA or pcDNA3.1 (2.5 μg). At 24 h after transfection, cells were seeded on ViewPlate-96 well plates (PerkinElmer). FRET was assessed 72 h post-transfection, following overnight serum restriction. Cells were equilibrated in HBSS-HEPES (30 min, 37° C.). FRET was measured using a PHERAstar FSX Microplate Reader (BMG LabTech). For CFP/YFP emission ratio analysis, cells were sequentially excited using a CFP filter (425/10 nm) with emission measured using YFP (550/50 nm) and CFP (490/20 nm) filters. FRET was measured before and after stimulation with trypsin (10 nM), NE (100 nM), CS (100 nM), phorbol 12,13-dibutyrate, PDBu (positive control, 1 μM), or vehicle. FRET ratios (donor/acceptor intensity for EKAR, or acceptor/donor intensity for CKAR and Epac) were calculated and corrected to baseline and vehicle treatments to determine ligand-induced FRET (ΔFRET). Treatment effects were determined by comparison of area under the curve values. Signalling inhibitors were dissolved in HBSS-HEPES. PS2 and PS2 inact were dissolved in HBSS-HEPES+1% DMSO. […]

[1] = tested on: cytosolic and nuclear ERK; experiment: FRET assays of cytosolic and nuclear ERK in HEK293 cells; format: cell-based; details: for trypsin activation of cytosolic and nuclear ERK: I-343 10 μM, SCH530348 100 nM, PS2 30 μM
Description: Trypsin-induced ERK signaling mediated by endosomal PAR2 signaling was investigated in HEK293 cells expressing Flag-PAR2-HA11 and FRET biosensors for cytosolic and nuclear ERK (CytoEKAR, NucEKAR), plasma membrane and cytosolic PKC (pmCKAR, CytoCKAR), and plasma membrane and cytosolic cAMP (pmEpac, CytoEpac). […] I-343 (10 μM) but not SCH530348 (100 nM) inhibited trypsin activation of cytosolic and nuclear ERK (FIG. 5G). PS2 and DynK44E inhibited trypsin-stimulated activation of cytosolic and nuclear ERK when compared to PS2 inact and DynWT controls (FIG. 5H, 5I, 17G-J). AG1478 (1 μM), an inhibitor of EGF receptor tyrosine kinase (Levitzki, A. & Gazit, A. Science 1995, 267(5205): 1782-1788), UBO-QIC (100 nM), which inhibits Gαq and certain Gβγ signals ([…]), and G66983 (1 μM), which inhibits all isoforms of PKC (Gschwendt, M, et al., FEBS Lett 1996, 392(2): 77-80), suppressed trypsin-stimulated activation of cytosolic ERK (FIGS. 5J and 17K).
as §1
HEK293 cells were transiently transfected in 10 cm dishes (˜50% confluency) with Flag-PAR2-HA (2.5 μg) and FRET biosensors CytoEKAR or NucEKAR (2.5 μg) (Jensen, D. D. et al., Sci Transl Med. 2017, 9(392), eaal3447; Thomsen, A. R. B., et al., Cell 2016, 166(4): 907-919). In experiments examining the role of dynamin, cells were transfected with FLAG-PAR2-HA (1.25 μg), FRET biosensor (1.25 μg) and either DynWT-HA, DynK44E-HA or pcDNA3.1 (2.5 μg). At 24 h after transfection, cells were seeded on ViewPlate-96 well plates (PerkinElmer). FRET was assessed 72 h post-transfection, following overnight serum restriction. Cells were equilibrated in HBSS-HEPES (30 min, 37° C.). FRET was measured using a PHERAstar FSX Microplate Reader (BMG LabTech). For CFP/YFP emission ratio analysis, cells were sequentially excited using a CFP filter (425/10 nm) with emission measured using YFP (550/50 nm) and CFP (490/20 nm) filters. FRET was measured before and after stimulation with trypsin (10 nM), NE (100 nM), CS (100 nM), phorbol 12,13-dibutyrate, PDBu (positive control, 1 μM), or vehicle. FRET ratios (donor/acceptor intensity for EKAR, or acceptor/donor intensity for CKAR and Epac) were calculated and corrected to baseline and vehicle treatments to determine ligand-induced FRET (ΔFRET). Treatment effects were determined by comparison of area under the curve values. Signalling inhibitors were dissolved in HBSS-HEPES. PS2 and PS2 inact were dissolved in HBSS-HEPES+1% DMSO. Cells were incubated with UBO-QIC (100 nM), AG1478 (1 μM), G66983 (1 μM), PS2 or PS2 inact (30 μM) or vehicle (30 min preincubation, inclusion throughout).

PAR2-RLuc8 = molecular target: T1, PAR2-RLuc8 (Homo sapiens, UniProt P55085); experiment: BRET assays of PAR2 endocytosis in HEK293 cells; format: cell-based; details: for pEC50: HEK293 cells
T1 construct: expressed in transfected cells; host or cells: HEK293, transient transfection with PEI
T1 sequence (P55085 26-397): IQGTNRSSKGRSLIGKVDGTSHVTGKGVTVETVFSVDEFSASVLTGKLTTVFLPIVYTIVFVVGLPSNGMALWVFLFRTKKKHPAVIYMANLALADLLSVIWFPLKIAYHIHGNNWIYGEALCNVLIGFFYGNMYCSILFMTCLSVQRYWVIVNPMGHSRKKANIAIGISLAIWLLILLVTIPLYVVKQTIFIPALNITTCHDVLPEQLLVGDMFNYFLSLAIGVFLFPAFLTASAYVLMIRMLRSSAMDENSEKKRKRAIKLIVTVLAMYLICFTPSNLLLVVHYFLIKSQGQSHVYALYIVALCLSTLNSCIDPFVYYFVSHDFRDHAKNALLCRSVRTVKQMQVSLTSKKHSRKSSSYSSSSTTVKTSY

Compound: Cc1nc(C(=O)N2CCN(C(=O)c3cn4nc(-c5ccc(F)cc5)cc(C(C)(C)C)c4n3)C(C)(C)C2)n[nH]1 [Compound I-343, (8-(tert-butyl)-6-(4-fluorophenyl)imidazo[1,2-b]pyridazin-2-yl)(2,2-dimethyl-4-(5-methyl-1H-1,2,4-triazole-3-carbonyl)piperazin-1-yl)methanone]
basal mechanical sensitivity of colonic afferents (colonic afferent neurons): did not affect
trypsin-induced sensitization of mechanical responses (colonic afferent neurons): abolished
trypsin stimulation of PKC and cAMP (PKC and cAMP; HEK293 cells): inhibited
trypsin activation of cytosolic and nuclear ERK [1]: inhibited

trypsin-induced decrease in PAR2-RLuc8/RIT-Venus BRET and increase in PAR2-RLuc8/Rab5a-Venus BRET (PAR2-RLuc8; PS2 or PS2 inact): suppressed
Compound: O=C1NC(=NS(=O)(=O)c2cccc3ccccc23)S/C1=C\c1ccc(Br)cc1 [PS2]
basal mechanical sensitivity of colonic afferents (colonic afferent neurons): did not affect
trypsin-induced sensitization of mechanical responses (colonic afferent neurons): abolished
trypsin activation of cytosolic and nuclear ERK [1]: inhibited

PAR2-RLuc8/RIT-Venus or Rab5a-Venus BRET (PAR2-RLuc8; 100 nM): Neither NE nor CS (100 nM) affected
Compound: NE: protease (elastase) activating PAR2 by biased mechanisms
amplification of frequency of firing to mechanical stimulation (colonic afferent neurons): 41.0±11.8%

pEC50 (PAR2-RLuc8; read-out: EC50, decrease in PAR2-RLuc8/RIT-Venus BRET): 8.54
pEC50 (PAR2-RLuc8; read-out: EC50, increase in PAR2-RLuc8/Rab5a-Venus BRET): 8.57
PAR2-RLuc8/Rab5a-Venus BRET after 60 min (PAR2-RLuc8; compared to HC supernatant, trypsin 10 nM positive control): increased
pEC50 ([1]; HEK293 cells, read-out: EC50, activation of ERK in the cytosol and nucleus): 8.30
Compound: trypsin
amplification of frequency of firing to mechanical stimulation (colonic afferent neurons): 35.8±5.9%
PKC activation and cAMP generation at the plasma membrane and in the cytosol (PKC and cAMP; trypsin 10 nM): rapid and sustained activation
activation of ERK in the cytosol and nucleus ([1]; trypsin 10 nM, NE or CS 100 nM): stimulated a rapid and persistent activation
